Earlier results in patent publication US20240307296A1, “SUBCUTANEOUS BIODEGRADABLE NALTREXONE IMPLANT AND ACCOMPANYING BEHAVIORAL PROGRAM FOR WEIGHT LOSS IN A PATIENT” (Biocorrx, priority 2017, published 2024).

Tested on: fasting insulin levels
Details: in vivo

SMILES: O=C1CC[C@@]2(O)[C@H]3Cc4ccc(O)c5c4[C@@]2(CCN3CC2CC2)[C@H]1O5 [Naltrexone, N-Cyclopropylmethylnoroxymorphone]
- Lowering of fasting insulin levels: up to 40%
